Data on three compounds can be found in paper PMC10667816, “A Cell‐Penetrant Peptide Disrupting the Transcription Factor CP2c Complexes Induces Cancer‐Specific Synthetic Lethality” (Advanced Science, 2023).

Data set [1] has as its system human stem cells (hMSCs and hESCs), mouse embryonic fibroblasts (MEFs), and human non‐transformed cell lines (BEAS‐2B and MCF10A). The data set can be described thus: MTT growth inhibition in stem and non‐transformed cells. Format: cell-based. The conditions noted are these: concentration of 1 mM.
Description: Various cell lines were treated with peptides, either alone or in combination with the CASP2 inhibitor (Ac‐VDVAD‐CHO; Enzo ALX‐260‐058‐M001) at various concentrations for 4 days. Cell viability was assessed on day 2 or day 4 using MTT (3‐(4,5‐dimethylthiazol‐2‐yl)‐2,5‐diphenyltetrazolium bromide; Sigma–Aldrich, M2128) assay. In brief, fresh cells were seeded in flat‐bottomed 96‐well tissue culture plates at appropriate concentrations for each cell line per well using complete culture medium. The cells were incubated in 100 µL of culture medium containing various concentration of chemicals or peptides at 37 °C for 0 to 96 h. A solution of MTT (5 mg mL^−1) was added to the culture medium, and the cells were further incubated at 37 °C for an additional 3 h. The MTT medium was then removed, and the formazan crystals were dissolved in DMSO (100 µL per well). The formazan concentration was measured spectrophotometrically at 490 nm using a Varioskan Flash Spectral Scanning Multimode Reader (Thermo Scientific Korea). Nonlinear regression curves for growth inhibition and GI50 values for each cell line were estimated from independent replicates using the Prism (version 6) software (GraphPad Software Inc.)
Data set [2] deals with A431 epidermoid carcinoma. The data set can be described thus: A431 CDX mouse model. To be noted: intravenous injection every 2 or 3 days from day 14. Format: in vivo. On the procedure: Animal experiments were conducted in accordance with ethical guidelines, and all protocols were approved by the Institutional Animal Care and Use Committee under Hanyang University (approval numbers, 2014‐0016A, 2018‐0049A, 2018‐0207A, and 2019‐0169A), Chung‐Ang University (approval number, 2015‐00022), Chungbuk University (approval number, CBNUA‐1072‐17‐02), and Konkuk University (approval number, KU17130). To establish xenograft mice models, Hep3B, A431, U343, and PC9 cells were subcutaneously injected into the flank of Balb/c nude mice. For the MDA‐MB‐231 (LM1) cell line, it was implanted into the mammary fat pad of immunodeficient mice (NPG mice). […] Tumor volume was calculated using the formula of length × width^2)/2. […] The in vivo administration amount was determined based on the concentration of ACP52C confirmed at the cellular level, which was 2 µM. […] For ACP52C derivatives, the amount was adjusted to ensure a similar molar quantity of peptide injection, taking their molecular weights into account. For instance, in the case of ACP52CGK, ≈1.67 times the quantity was used compared to ACP52C to achieve an equivalent molar quantity. […] Hematoxylin and eosin (H&E)‐stained tissue sections were analyzed and photographed, and the representative histological images were recorded. […]

In data set [3] the target is T1, CP2c (Mus musculus, UniProt Q9ERA0).
T1 construct: extracts from iMEL cells (day 2); endogenous in cells; host or cells: nuclear extract of HMBA-induced MEL (iMEL) cells, day 2
T1 sequence (Q9ERA0 whole entry): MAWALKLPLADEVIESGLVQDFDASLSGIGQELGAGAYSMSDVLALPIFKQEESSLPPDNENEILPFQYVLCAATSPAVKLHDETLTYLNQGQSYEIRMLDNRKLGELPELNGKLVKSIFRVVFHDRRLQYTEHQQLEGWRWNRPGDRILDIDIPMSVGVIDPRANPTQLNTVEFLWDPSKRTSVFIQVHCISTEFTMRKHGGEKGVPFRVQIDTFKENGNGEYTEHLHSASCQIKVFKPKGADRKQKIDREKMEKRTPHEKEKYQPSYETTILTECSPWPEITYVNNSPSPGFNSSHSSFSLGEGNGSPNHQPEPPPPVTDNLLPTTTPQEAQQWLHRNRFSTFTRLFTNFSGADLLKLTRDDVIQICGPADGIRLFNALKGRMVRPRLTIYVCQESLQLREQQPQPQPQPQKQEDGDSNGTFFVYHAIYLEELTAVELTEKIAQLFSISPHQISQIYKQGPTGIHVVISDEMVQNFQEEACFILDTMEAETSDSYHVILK
As to the kind of experiment: DNA‐IP assay of CP2c DNA binding. In kind it is biochemical. The conditions noted are these: 0–3 µM peptide, concentration‐dependent. On the procedure: DNA‐IP assay was performed essentially as described previously.^[ [14] ^] Each of the oligonucleotides was mixed and annealed in the TEN buffer. For the radio‐labeling of the DNA probe, the annealed DNA was incubated with a mixture of dATP, dGTP, dTTP, [α^32P]‐dCTP, and Klenow enzyme in reaction buffer (5 mM NaCl, 1 mM Tris HCl, 1 mM MgCl2, and 0.1 mM DTT) for 30 min at 25 °C, and stopped by incubation with EDTA (10 mM final) for 20 min at 75 °C. The radio‐labeled DNA probe was purified by applying the reaction mixture to ProbeQuant G‐50 micro columns (GE healthcare, GE28‐9034‐08). Whole extracts prepared from transfecting 293T cells or purified GST fused CP2c proteins (wildtype and point mutants) were incubated with a [α^32P]‐labeled DNA probe in binding buffer (4% glycerol, 10 mM Tris‐HCl, pH 7.4, 1 mM DTT, 1 mM EDTA, and 0.1% NP‐40) for 15 min at room temperature. Then 0–3 µM of peptides (Pep #5, Pep #8, Pep #5‐1, Pep #5‐2, and Pep #5‐2C) were added to the DNA‐protein mixture, and the mixtures were incubated for 15 min at room temperature (peptide sequences are listed in Table S3, Supporting Information). For IP, precleared extracts were incubated overnight at 4 °C with 1 µg of the following primary antibodies (CP2c, CP2b, and PIAS1). […] The radioactivity of the eluted probe was measured by scintillation counting.

The nature of data set [4]: Solubility of peptides. In kind it is physicochemical. From the text:
The peptides listed in Table S3 (Supporting Information) were synthesized by either ANYGEN (Kwangju, Korea) or PepMic (Suzhou, China) and achieved purity of over 95%. These peptides were synthesized using the Solid‐phase method based on the Fmoc strategy, using an Applied Biosystems 431A peptide synthesizer on a 0.25‐mmol scale. To enhance the stability of ACP52C, saturated C16 palmitic acid, DHA, and E‐pal were utilized. These fatty acids were linked to the lysine (K) residue at the N‐terminal of ACP52C or within the ACP52 and iRGD region through a covalent bond formed between the εK NH3+ and αE or γE COO‐ groups. After synthesis, the final product was prepared through lyophilization and appeared as a white amorphous powder for both ACP52C and its derivatives. To confirm their quality, the purity and molecular weight of the final product were evaluated using amino acid analysis, analytical RP‐HPLC, and MALDI‐MS. […] FQI1, Sorafenib, and cisplatin were purchased from Sigma–Aldrich (SML0413, SML2653) or Selleckchem (S1166), respectively.
Figure S21. […]
A) A schematic representation depicting the structural diagrams, molecular weights, and minimum solubilities (in water or saline) of ACP52C and its derivatives. […] Tumor weight in the sacrificed mice after completion of drug administration schedule was expressed as means ± SE. […]

*1 amine or outer side, *2 acyl side, *3 side chain or, on linkers, in order; H or OH if unused. Where a SMILES comes first, the peptide text is derived from it. Side-chain parts run from the residue outwards. The star is where a group is joined. γGlu = O=C(O)[C@H](CCC(=O)[*:2])N[*:1]; Palmitoyl = CCCCCCCCCCCCCCCC(=O)* Where only a bound is given, the exact number is not on record here.

`CC(=O)N[C@@H](CC(N)=O)C(=O)N[C@@H](Cc1ccc(O)cc1)C(=O)N1CCC[C@H]1C(=O)N[C@@H](CCC(N)=O)C(=O)N[C@@H](CCCNC(=N)N)C(=O)N1CCC[C@H]1C(=O)N[C@@H](CS)C(=O)N[C@@H](CCCNC(=N)N)C(=O)NCC(=O)N[C@@H](CC(=O)O)C(=O)N[C@@H](CCCCN)C(=O)NCC(=O)N1CCC[C@H]1C(=O)N[C@@H](CC(=O)O)C(=O)N[C@@H](CS)C(N)=O` [ACP52C] (Ac-NYPQRPCRGDKGPDC-NH2): the growth inhibition result in data set [1] is “minimal to zero growth inhibition”. The tumor weight entry in data set [2] was “significantly reduced tumor weight”.
`CCOc1ccccc1C1CC(=O)Nc2cc3c(cc21)OCO3` (stereo not shown) [FQI1, Factor Quinolinone Inhibitor 1, reference compound]: in data set [3], the “inhibition of DNA binding activity of CP2c” value was “proficient inhibition of DNA binding”.
On to `CCCCCCCCCCCCCCCC(=O)N[C@@H](CCC(=O)NCCCC[C@H](NC(=O)CNC(=O)CNC(=O)[C@@H]1CCCN1C(=O)[C@H](CCCNC(=N)N)NC(=O)[C@H](CCC(N)=O)NC(=O)[C@@H]1CCCN1C(=O)[C@H](Cc1ccc(O)cc1)NC(=O)[C@H](CC(N)=O)NC(C)=O)C(=O)NCC(=O)NCC(=O)N[C@@H](CS)C(=O)N[C@@H](CCCNC(=N)N)C(=O)NCC(=O)N[C@@H](CC(=O)O)C(=O)N[C@@H](CCCCN)C(=O)NCC(=O)N1CCC[C@H]1C(=O)N[C@@H](CC(=O)O)C(=O)N[C@@H](CS)C(N)=O)C(=O)O` [ACP52CGK] (Ac-NYPQRPGGK([γGlu-Palmitoyl])GGCRGDKGPDC-NH2), for which the “concentration at which completely dissolved” value in data set [4] was no less than 100000 µg/mL.
